In brackets after ≈: the same amount, converted by molar mass. Read-outs that look alike come from different tables or passages of the source.
Experiments:
[1] = Oxygen radical absorbance capacity (ORAC-FL) assay; conditions: n.a. = inactive; i.t.s. = interferes with test system
Source text: We evaluated the primary antioxidant activity of synthesized 4-AHPs 5–9 in comparison with their non-fluorinated analogues 9a,b using three standard tests: ABTS, FRAP (ferric reducing antioxidant power) and ORAC (oxygen radical absorbance capacity) assays. The ABTS assay evaluates the binding of a model ABTS radical cation (ABTS^•+), which is realized by the mechanism of single electron transfer (SET) and/or hydrogen atom transfer (HAT). The FRAP assay measures the ability of compounds to reduce the ferric 2,4,6-tripyridyl-s-triazine complex [Fe(TPTZ)2]^3+ to [Fe(TPTZ)2]^2+, which occurs exclusively by the SET mechanism. The ORAC-FL assay measures the oxidative degradation of the fluorescent molecule (FL – fluorescein) after being mixed with a free peroxyl radical generator such as 2,2′-azobis-(2-methylpropionamidine) dihydrochloride (AAPH) in the presence of antioxidant (tested compound). The ORAC-FL test describes the antioxidants’ ability to yield the hydrogen atom and, consequently, it is a HAT-based assay. Trolox was used in all tests as a reference antioxidant: the antioxidant activity of the test compounds was referred to the activity of Trolox. The well-known antioxidant Edaravone was also used for comparison.
The ORAC assay was performed according to the known method, with minor variations and described by us recently.

Sprague-Dawley (SD) rats = experiment: Hot plate test (analgesic activity); assay type: in vivo; conditions: ip; for change in vivo at 15 mg/kg: Rattus norvegicus
Description: The hot plate test was conducted according to established guidelines on Sprague-Dawley (SD) rats (3 male and 3 female rodents per group). The compounds were intraperitoneally administered in the form of suspensions in 1% starch mucilage. Negative control group animals received vehicle only (1% starch mucilage). Diclofenac sodium (Hemofarm, Vršac, Serbia, 10 mg/kg in 1% starch mucilage solution) or metamizole sodium (PAO Biosynthesis, Sun Pharma, Penza, Russia, 15 mg/kg in 1% starch mucilage solution) were used as reference drugs. One and two hours after the injection, rats were placed on an electrically heated to 50 °C plate (Hot plate 60,200 series, TSE-systems, Bad Homburg, Germany) in a Plexiglas cylindrical restrainer (19 cm diameter × 30 cm). The nociceptive response time was measured by observing the appearance of rats’ movements (e.g., jumping, hind paw licking or shaking). Maximal cutoff time was set as 30 s regardless of the response in order to preclude skin damage.
Differences between the values of the latency period for the treated (experimental) and control groups of animals were considered significant at p ≤ 0.05.

[2] = system: Candida albicans RCPF Y 401/NCTC 885/653; experiment: Antifungal susceptibility testing, C. albicans; conditions: NCTC885, read-out: MIC for fungi strains inhibition, C. albicans
Source text: (§4) The solvent was DMSO. […] In each test, a growth control and a sterility control were used.

[3] = molecular target: T1, human erythrocyte acetylcholinesterase (AChE, EC 3.1.1.7) (Homo sapiens, UniProt P22303); experiment: Inhibition of human erythrocyte acetylcholinesterase (Ellman assay); assay type: biochemical; conditions: read-out: Inhibition % at 20 µM, Human AChE
T1 construct: human erythrocyte acetylcholinesterase (AChE, EC 3.1.1.7); purchased Sigma-Aldrich (Saint Louis, MO, USA); host or cells: human erythrocytes
T1 sequence (P22303 32-617 isoform P22303-2 limits assumed): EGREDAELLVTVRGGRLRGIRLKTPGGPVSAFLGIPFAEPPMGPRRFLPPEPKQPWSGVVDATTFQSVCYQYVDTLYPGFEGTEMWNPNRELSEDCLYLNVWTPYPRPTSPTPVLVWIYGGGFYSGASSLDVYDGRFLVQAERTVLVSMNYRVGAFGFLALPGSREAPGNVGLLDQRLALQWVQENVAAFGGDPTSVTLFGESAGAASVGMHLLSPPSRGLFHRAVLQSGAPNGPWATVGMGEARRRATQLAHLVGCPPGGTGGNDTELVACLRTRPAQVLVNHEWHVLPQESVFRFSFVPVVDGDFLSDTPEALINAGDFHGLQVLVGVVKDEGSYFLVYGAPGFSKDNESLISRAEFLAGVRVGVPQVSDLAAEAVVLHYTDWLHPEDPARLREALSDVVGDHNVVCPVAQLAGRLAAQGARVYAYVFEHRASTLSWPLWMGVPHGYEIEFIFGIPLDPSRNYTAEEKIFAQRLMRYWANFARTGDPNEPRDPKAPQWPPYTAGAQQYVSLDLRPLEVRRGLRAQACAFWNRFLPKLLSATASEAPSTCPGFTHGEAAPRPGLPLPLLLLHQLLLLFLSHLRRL
Source text: (§1) The following enzymes were purchased from Sigma-Aldrich (Saint Louis, MO, USA): porcine liver carboxylesterase (CES, EC 3.1.1.1), human erythrocyte acetylcholinesterase (AChE, EC 3.1.1.7) and equine serum butyrylcholinesterase (BChE, EC 3.1.1.8). Substrates for CES, AChE and BChE were 4-nitrophenyl acetate (4-NPA), acetylthiocholine iodide (ATCh) and butyrylthiocholine iodide (BTCh), respectively, and the colorimetric reagent for the AChE and BChE assays was 5,5’-dithio-bis-(2-nitrobenzoic acid) (DTNB) (Sigma-Aldrich). All the kinetic experiments were performed under standard conditions, according to the protocol of IPAC RAS for a reversible inhibitors study.
Reagent blanks consisted of reaction mixtures without enzyme to assess non-enzymatic hydrolysis of substrates.
Test compounds were dissolved in DMSO. Reaction mixtures contained a final DMSO concentration of 2% (v/v). […] Measurements were performed in a Bio-Rad Benchmark Plus microplate reader. Each experiment was performed in triplicate. Plots, linear regressions and values of IC50, were determined using Origin 6.1 for Windows, OriginLab (Northampton, MA, USA).

[4] = system: Epidermophyton floccosum RCPF F 1659/17; experiment: Antifungal susceptibility testing, E. floccosum; conditions: Epidermophyton floccosum, RCPFF1659/17, read-out: MIC for fungi strains inhibition, E. floccosum
Source text: as §4

[5] = molecular target: T2, equine serum butyrylcholinesterase (BChE, EC 3.1.1.8) (Equus caballus, UniProt P81908); experiment: Inhibition of equine serum butyrylcholinesterase (Ellman assay); assay type: biochemical; conditions: read-out: Inhibition % at 20 µM, Equine BChE
T2 construct: equine serum butyrylcholinesterase (BChE, EC 3.1.1.8); purchased Sigma-Aldrich (Saint Louis, MO, USA); host or cells: equine serum
T2 sequence (P81908 whole entry): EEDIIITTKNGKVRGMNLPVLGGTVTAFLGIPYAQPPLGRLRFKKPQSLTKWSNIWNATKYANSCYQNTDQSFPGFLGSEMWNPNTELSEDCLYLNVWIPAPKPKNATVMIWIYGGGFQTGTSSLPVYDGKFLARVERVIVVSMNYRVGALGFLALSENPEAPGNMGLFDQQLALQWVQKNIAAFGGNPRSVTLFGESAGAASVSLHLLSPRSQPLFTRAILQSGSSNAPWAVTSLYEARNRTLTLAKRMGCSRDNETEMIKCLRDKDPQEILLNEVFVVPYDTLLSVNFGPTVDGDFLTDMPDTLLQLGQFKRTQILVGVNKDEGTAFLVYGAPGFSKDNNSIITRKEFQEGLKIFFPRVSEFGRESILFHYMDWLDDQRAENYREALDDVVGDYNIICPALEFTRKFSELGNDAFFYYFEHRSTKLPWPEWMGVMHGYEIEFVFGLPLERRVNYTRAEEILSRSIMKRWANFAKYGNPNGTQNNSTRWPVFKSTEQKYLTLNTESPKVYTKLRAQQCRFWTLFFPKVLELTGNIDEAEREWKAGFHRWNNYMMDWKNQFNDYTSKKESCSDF
Source text: as §1
Final concentrations of reactants were 0.33 mM DTNB, 0.02 unit/mL of AChE or BChE and 1 mM of substrate (ATCh or BTCh, respectively). Reagent blanks consisted of reaction mixtures without enzyme to assess non-enzymatic hydrolysis of substrates.
(§2) Test compounds were dissolved in DMSO. Reaction mixtures contained a final DMSO concentration of 2% (v/v). […] Substrate was then added and residual enzyme activity relative to an inhibitor-free control was measured using a Bio-Rad Benchmark Plus microplate reader (Marnes-la-Coquette, France).
(§3) Measurements were performed in a Bio-Rad Benchmark Plus microplate reader. Each experiment was performed in triplicate. Plots, linear regressions and values of IC50, were determined using Origin 6.1 for Windows, OriginLab (Northampton, MA, USA).

[6] = Acute toxicity evaluation in mice (ip); conditions: CD-1, mouse, in vivo, 300 mg/kg
Description: The toxicity evaluation was performed on CD-1 mice. […] The tested compounds in 1% starch mucilage were injected intraperitoneally into three mice. Then, animals were observed during 14 days, the number of deaths was counted and % of viability calculated.

[7] = system: Microsporum canis RCPF F 1643/1585; experiment: Antifungal susceptibility testing, M. canis; conditions: Microsporum canis, RCPFF1643/1585, read-out: MIC for fungi strains inhibition, M. canis
Source text: as §4

[8] = system: Trichophyton rubrum RCPF F 1408; experiment: Antifungal susceptibility testing, T. rubrum; conditions: Trichophyton rubrum, RCPFF1408, read-out: MIC for fungi strains inhibition, T. rubrum
Source text: as §4

[9] = molecular target: porcine liver carboxylesterase (CES, EC 3.1.1.1) (Sus scrofa, UniProt Q29550); experiment: Inhibition of porcine liver carboxylesterase (4-NPA colorimetric assay); assay type: biochemical; conditions: mean ± SEM, n = 3; for inhibition at 20 µM: n.a. = inactive at 20 µM
Sequence of porcine liver carboxylesterase (CES, EC 3.1.1.1) (Q29550 19-566): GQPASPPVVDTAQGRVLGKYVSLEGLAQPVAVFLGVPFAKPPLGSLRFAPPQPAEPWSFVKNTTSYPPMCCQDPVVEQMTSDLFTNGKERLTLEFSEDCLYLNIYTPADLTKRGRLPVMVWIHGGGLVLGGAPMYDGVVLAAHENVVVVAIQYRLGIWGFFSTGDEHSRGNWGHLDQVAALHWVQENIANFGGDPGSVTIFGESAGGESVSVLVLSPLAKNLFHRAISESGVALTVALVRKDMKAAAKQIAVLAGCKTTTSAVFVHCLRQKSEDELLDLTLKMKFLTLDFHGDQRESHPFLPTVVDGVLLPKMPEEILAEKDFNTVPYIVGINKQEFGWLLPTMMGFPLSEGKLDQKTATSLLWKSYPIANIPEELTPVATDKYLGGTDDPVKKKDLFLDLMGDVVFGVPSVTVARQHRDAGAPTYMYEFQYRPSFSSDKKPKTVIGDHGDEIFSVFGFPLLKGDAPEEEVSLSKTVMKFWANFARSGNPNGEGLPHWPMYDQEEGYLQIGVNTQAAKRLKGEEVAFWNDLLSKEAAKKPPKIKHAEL
Source text: as §1
The CES (porcine liver) activity was assessed colorimetrically in 0.1 M K/Na phosphate buffer pH 8.0, 25 °C, by measuring the absorbance of 4-nitrophenol at 405 nm. Final enzyme and substrate (4-NPA) concentrations were 0.02 unit/mL and 1 mM, respectively. Reagent blanks included all constituents except enzyme.
as §2, with “(v/v). Enzyme inhibition was first assessed at a single concentration of 20 µM for each compound after a 5 min incubation at 25 °C in three separate experiments.” for “(v/v).”
as §3, with “USA). Results were calculated using GraphPad Prism version 6.05 for Windows, GraphPad Software (La Jolla, CA, USA) and presented as mean ± SEM.” for “USA).”

[10] = system: Neisseria gonorrhoeae ATCC 49226/NCTC 12700; experiment: Antibacterial activity against Neisseria gonorrhoeae; assay type: cell-based; conditions: read-out: MIC against Neisseria gonorrhoeae
Description: Antibacterial activity testing was done on the growth medium Difco GC medium base (Becton Dickinson, Franklin Lakes, NJ, USA) supplemented with 1% IsoVitaleX. Dilutions of chemical compounds were carried out in the range of 250–0.12 μg/mL in 24 well sterile plates (Sarstedt, Germany). Daily cultures of control bacterial strains were identified on a VITEK MS analyzer (BioMérieux, Marcy-l’Étoile, France) by MALDI-TOF mass spectrometry. The inoculation dose of N. gonorrhoeae inoculum was 10^5 CFU/mL.

[11] = ABTS radical cation scavenging activity assay; conditions: mean ± SEM
Description: Radical scavenging activity of the compounds was evaluated by the ABTS radical cation (ABTS^•+) scavenging assay by the ability of the compounds to decolorize the ABTS^•+ solution [112] with some modifications. Trolox was used as a reference standard. Edaravone was used as the comparison compound. All tested compounds and standards were dissolved in DMSO. ABTS (2,2′-azinobis-(3-ethylbenzothiazoline-6-sulfonic acid)) was purchased from Tokyo Chemical Industry Co. Ltd. (Tokyo, Japan). Potassium persulfate (di-potassium peroxdisulfate), Trolox® (6-hydroxy-2,5,7,8-tetramethychroman-2-carboxylic acid), ascorbic acid, DMSO and HPLC-grade ethanol were obtained from Sigma-Aldrich Chemical Co. Aqueous solutions were prepared using deionized water.
The solution of ABTS^•+ was produced by mixing 7 mM ABTS aqueous solution with 2.45 mM potassium persulfate aqueous solution in equal quantities and allowing them to react for 12–16 h at room temperature in the dark. Radical scavenging capacity of the compounds was analyzed by mixing 10 μL of compound with 240 μL of ABTS^•+ working solution in ethanol (100 μM final concentration), and after 1 h of incubation at 30 °C the decrease in absorbance was measured spectrophotometrically at 734 nm using a Bio-Rad xMark microplate UV/VIS spectrophotometer (Bio-Rad, Hercules, CA, USA). The compounds were tested in the concentration range of 5 × 10^–7–4 × 10^–4 M. Ethanol blanks were run in each assay. Values were obtained from five replicates of each sample and three independent experiments.
Antioxidant activity was calculated as Trolox equivalent antioxidant capacity (TEAC values), consisting of the ratio between the slopes obtained from the linear correlation for concentrations of the tested compounds and Trolox with absorbance of ABTS radical. For the test compounds, which reduce ABTS^•+ absorbance by more than 60% at 100 µM, we also determined IC50 values as 50% reduction of the ABTS radical. The calculations were carried out using Origin 6.1 for Windows. Results were presented as mean ± SEM, calculated using GraphPad Prism version 6.05 for Windows, GraphPad Software.

[12] = hot plate test, rats, dose 15 mg/kg, 1 h, n.a. = inactive (p > 0.05), read-out: Latent Period Prolongation, % 1 h
[13] = hot plate test, rats, dose 15 mg/kg, 2 h, n.a. = inactive (p > 0.05), read-out: Latent Period Prolongation, % 2 h

Compound | ORAC-FL (TE, antioxidant activity in Trolox equivalents) [1] | change in vivo at 15 mg/kg (Sprague-Dawley (SD) rats; [12]) [%] | change in vivo at 15 mg/kg (Sprague-Dawley (SD) rats; [13]) [%] | MIC [2] [mg/L] | inhibition at 20 µM [3] [%] | MIC [4] [mg/L] | inhibition at 20 µM [5] [%] | survival at 14 days [6] [%] | MIC [7] [mg/L] | MIC [8] [mg/L] | inhibition at 20 µM [9] [%] | MIC [10] [mg/L] | analgesic activity in the hot plate test (Sprague-Dawley (SD) rats; SD rats, dose 15 mg/kg, 1 and 2 h) | change in vivo at 15 mg/kg (Sprague-Dawley (SD) rats; 1 h, read-out: Latent Period Prolongation, % 1 h) [%] | change in vivo at 15 mg/kg (Sprague-Dawley (SD) rats; 2 h, read-out: Latent Period Prolongation, % 2 h) [%] | IC50 [11] [µM] | ABTS•+-scavenging activity, TEAC (trolox equivalent antioxidant capacity) ([11]; n.a. = inactive) | IC50 ([9]; read-out: Inhibitory Activity IC50 ± SEM, Porcine CES) [µM]
O=C1/C(=N\Nc2ccccc2Cl)C(C(F)(F)F)=NN1c1ccccc1 [5i, (4Z)-4-[2-(2-Chlorophenyl)hydrazinylidene]-2-phenyl-5-(trifluoromethyl)-2,4-dihydro-3H-pyrazol-3-one] | i.t.s. | 42 | 61 | > 200 | 6.3 ± 1 | > 200 | 6.4 ± 1.3 | 100 | > 200 | > 200 | 23.2 ± 1.8 | > 250 | – | – | – | – | – | –
O=C1/C(=N\Nc2ccc(S(=O)(=O)O)cc2)C(C(F)(F)F)=NN1c1ccccc1 [5o, (4Z)-4-(2-[4-(Sulfo)phenyl]hydrazinylidene)-2-phenyl-5-(trifluoromethyl)-2,4-dihydro-3H-pyrazol-3-one] | i.t.s. | 109 | 54 | – | – | – | 7.4 ± 1.2 | 100 | – | – | 5.2 ± 1 | 62.5 (≈ 152 µM) | – | – | – | – | – | –
O=C1/C(=N\Nc2ccc(Cl)cc2Cl)C(C(F)(F)C(F)(F)F)=NN1c1ccccc1 [6f, (4Z)-4-[2-(2,4-Dichlorophenyl)hydrazinylidene]-5-(pentafluoroethyl)-2-phenyl-2,4-dihydro-3H-pyrazol-3-one] | – | – | – | > 200 | 3.4 ± 0.7 | 200 (≈ 443 µM) | 4.3 ± 0.8 | 100 | > 200 | > 200 | 6.6 ± 0.9 | > 250 | inactive | – | – | – | – | –
Cc1ccc(N/N=C2\C(=O)N(c3ccccc3)N=C2C(F)(F)C(F)(F)C(F)(F)C(F)(F)F)cc1 [8b, (4Z)-5-(Nonafluorobutyl)-4-[2-(4-methylphenyl)hydrazinylidene]-2-phenyl-2,4-dihydro-3H-pyrazol-3-one] | – | – | – | – | 9 ± 1.4 | – | – | 100 | – | – | 12.1 ± 1.9 | > 250 | – | 95.2 | 125 | > 400 | 0.05 ± 0.03 | –
O=[N+]([O-])c1ccc(OP(=O)(O)Oc2ccc([N+](=O)[O-])cc2)cc1 [BNPP, reference compound] | – | – | – | – | – | – | – | – | – | – | – | – | – | – | – | – | – | 1.8 ± 0.11

Source: article PMC9821843, “Powerful Potential of Polyfluoroalkyl-Containing 4-Arylhydrazinylidenepyrazol-3-ones for Pharmaceuticals” (Molecules, 2022)
